Measured values reported in ChEMBL document CHEMBL5131567, “3,5,7-Substituted Pyrazolo[4,3-d]Pyrimidine Inhibitors of Cyclin-Dependent Kinases and Cyclin K Degraders” (J Med Chem, 2022).
Blank lines part the entries; values can stand above or below the compound they belong to. Active and inactive are the calls of the source. The calls are words filed in the database; no cut-off is given here.

How the values were obtained:
[1] = Antiproliferative activity against human MINO cells assessed as cell growth inhibition measured after 72 hrs by resazurin dye based microplate reader analysis; type: functional
[2] = Antiproliferative activity against human UPF1H cells assessed as cell growth inhibition measured after 72 hrs by resazurin dye based microplate reader analysis; type: functional
[3] = target: Cyclin-dependent kinase 2/cyclin E1 (Homo sapiens, UniProt P24941); assay: Inhibition of His-tagged CDK2/cyclin E1 (unknown origin) expressed in Sf9 cells using histone H1 as substrate in presence of ATP and [gamma33-P]ATP by radioisotope filter binding assay; type: cell-based
NU-DUL-1 = assay: Antiproliferative activity against human NU-DUL-1 cells assessed as cell growth inhibition measured after 72 hrs by resazurin dye based microplate reader analysis; type: functional
DB = assay: Antiproliferative activity against human DB cells assessed as cell growth inhibition measured after 72 hrs by resazurin dye based microplate reader analysis; type: functional
[4] = Antiproliferative activity against human OCI-Ly2 cells assessed as cell growth inhibition measured after 72 hrs by resazurin dye based microplate reader analysis; type: functional
OCI-LY19 = assay: Antiproliferative activity against human OCILY19 cells assessed as cell growth inhibition measured after 72 hrs by resazurin dye based microplate reader analysis; type: functional
U2932 = assay: Antiproliferative activity against human U2932 cells assessed as cell growth inhibition measured after 72 hrs by resazurin dye based microplate reader analysis; type: functional
SUD4 = assay: Antiproliferative activity against human SU-DHL-4 cells assessed as cell growth inhibition measured after 72 hrs by resazurin dye based microplate reader analysis; type: functional
[5] = Antiproliferative activity against human Ri-1 cells assessed as cell growth inhibition measured after 72 hrs by resazurin dye based microplate reader analysis; type: functional
[6] = target: Cyclin-dependent kinase 2/G1/S-specific cyclin-D1 (Homo sapiens, UniProt P24385+P24941); type: cell-based, Sf9
[7] = Inhibition of GST-tagged human CDK5/p25 expressed in Sf9 cells using histone H1 as substrate in presence of ATP and [gamma33-P] ATP by radioisotope filter binding assay
CDK9/cyclin T1 = CDK9/cyclin T1 (Homo sapiens, UniProt P50750); assay: Inhibition of GST-tagged human CDK9/Cyclin T1 expressed in Sf9 cells using (YSPTSPS)2KK peptide as substrate in presence of ATP and [gamma33-P] ATP by radioisotope filter binding assay; type: cell-based
CDK12/Cyclin K = CDK12/Cyclin K (Homo sapiens, UniProt Q9NYV4); assay: Inhibition of GST-tagged human CDK12/Cyclin K expressed in Sf9 cells using RBER-IRStide peptide as substrate in presence of ATP and [gamma33-P] ATP by radioisotope filter binding assay
[8] = target: Cyclin-dependent kinase 13/Cyclin-K (Homo sapiens, UniProt Q14004); assay: Inhibition of GST-tagged human CDK13/Cyclin K expressed in Sf9 cells using RBER-IRStide peptide as substrate in presence of ATP and [gamma33-P] ATP by radioisotope filter binding assay
[9] = target: Serine/threonine-protein kinase PAK 4 (Homo sapiens) (UniProt O96013); assay: Inhibition of human PAK4 (2 to 591 residues) expressed in Escherichia coli expression system at 1 uM using RRRLSFAEPG peptide as substrate incubated for 30 mins in presence of [gamma33P]ATP by scintillation based radioactive filter binding assay relative to control
[10] = target: Dual specificity tyrosine-phosphorylation-regulated kinase 1A (Homo sapiens) (UniProt Q13627); assay: Inhibition of human DYRK1A (1 to 502 residues) expressed in Escherichia coli expression system at 1 uM using KKISGRLSPIMTEQ peptide as substrate incubated for 30 mins in presence of [gamma33P]ATP by scintillation based radioactive filter binding assay relative to control
[11] = target: Glycogen synthase kinase-3 beta (Homo sapiens) (UniProt P49841); assay: Inhibition of human GSK3beta (2 to 420 residues) expressed in Sf21 cells at 1 uM using YRRAAVPPSPSLSRHSSPHQS(PO4)EDEEE peptide as substrate incubated for 30 mins in presence of [gamma33P]ATP by scintillation based radioactive filter binding assay relative to control
MINO = assay: Downregulation of cyclin K levels in human MINO cells up to 5 uM incubated for 2 hrs by immunoblotting analysis; type: functional, cell-based

Sequence of CDK12/Cyclin K (O75909 whole entry): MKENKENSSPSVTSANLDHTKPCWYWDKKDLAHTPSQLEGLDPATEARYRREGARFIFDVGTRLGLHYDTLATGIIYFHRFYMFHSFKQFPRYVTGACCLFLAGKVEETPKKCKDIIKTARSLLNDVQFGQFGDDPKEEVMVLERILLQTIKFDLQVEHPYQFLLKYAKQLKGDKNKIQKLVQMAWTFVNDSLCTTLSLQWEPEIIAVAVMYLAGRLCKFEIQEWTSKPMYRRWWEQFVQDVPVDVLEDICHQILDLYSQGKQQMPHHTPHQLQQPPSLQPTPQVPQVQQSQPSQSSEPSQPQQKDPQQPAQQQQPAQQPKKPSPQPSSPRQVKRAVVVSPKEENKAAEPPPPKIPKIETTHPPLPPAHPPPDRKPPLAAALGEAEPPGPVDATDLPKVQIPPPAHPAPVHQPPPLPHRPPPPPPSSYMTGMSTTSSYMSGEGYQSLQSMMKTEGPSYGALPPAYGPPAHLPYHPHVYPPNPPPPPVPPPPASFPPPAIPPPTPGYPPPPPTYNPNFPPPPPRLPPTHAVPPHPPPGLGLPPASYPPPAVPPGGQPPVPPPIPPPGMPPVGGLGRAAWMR
Sequence of CDK12/Cyclin K (Q9NYV4 whole entry): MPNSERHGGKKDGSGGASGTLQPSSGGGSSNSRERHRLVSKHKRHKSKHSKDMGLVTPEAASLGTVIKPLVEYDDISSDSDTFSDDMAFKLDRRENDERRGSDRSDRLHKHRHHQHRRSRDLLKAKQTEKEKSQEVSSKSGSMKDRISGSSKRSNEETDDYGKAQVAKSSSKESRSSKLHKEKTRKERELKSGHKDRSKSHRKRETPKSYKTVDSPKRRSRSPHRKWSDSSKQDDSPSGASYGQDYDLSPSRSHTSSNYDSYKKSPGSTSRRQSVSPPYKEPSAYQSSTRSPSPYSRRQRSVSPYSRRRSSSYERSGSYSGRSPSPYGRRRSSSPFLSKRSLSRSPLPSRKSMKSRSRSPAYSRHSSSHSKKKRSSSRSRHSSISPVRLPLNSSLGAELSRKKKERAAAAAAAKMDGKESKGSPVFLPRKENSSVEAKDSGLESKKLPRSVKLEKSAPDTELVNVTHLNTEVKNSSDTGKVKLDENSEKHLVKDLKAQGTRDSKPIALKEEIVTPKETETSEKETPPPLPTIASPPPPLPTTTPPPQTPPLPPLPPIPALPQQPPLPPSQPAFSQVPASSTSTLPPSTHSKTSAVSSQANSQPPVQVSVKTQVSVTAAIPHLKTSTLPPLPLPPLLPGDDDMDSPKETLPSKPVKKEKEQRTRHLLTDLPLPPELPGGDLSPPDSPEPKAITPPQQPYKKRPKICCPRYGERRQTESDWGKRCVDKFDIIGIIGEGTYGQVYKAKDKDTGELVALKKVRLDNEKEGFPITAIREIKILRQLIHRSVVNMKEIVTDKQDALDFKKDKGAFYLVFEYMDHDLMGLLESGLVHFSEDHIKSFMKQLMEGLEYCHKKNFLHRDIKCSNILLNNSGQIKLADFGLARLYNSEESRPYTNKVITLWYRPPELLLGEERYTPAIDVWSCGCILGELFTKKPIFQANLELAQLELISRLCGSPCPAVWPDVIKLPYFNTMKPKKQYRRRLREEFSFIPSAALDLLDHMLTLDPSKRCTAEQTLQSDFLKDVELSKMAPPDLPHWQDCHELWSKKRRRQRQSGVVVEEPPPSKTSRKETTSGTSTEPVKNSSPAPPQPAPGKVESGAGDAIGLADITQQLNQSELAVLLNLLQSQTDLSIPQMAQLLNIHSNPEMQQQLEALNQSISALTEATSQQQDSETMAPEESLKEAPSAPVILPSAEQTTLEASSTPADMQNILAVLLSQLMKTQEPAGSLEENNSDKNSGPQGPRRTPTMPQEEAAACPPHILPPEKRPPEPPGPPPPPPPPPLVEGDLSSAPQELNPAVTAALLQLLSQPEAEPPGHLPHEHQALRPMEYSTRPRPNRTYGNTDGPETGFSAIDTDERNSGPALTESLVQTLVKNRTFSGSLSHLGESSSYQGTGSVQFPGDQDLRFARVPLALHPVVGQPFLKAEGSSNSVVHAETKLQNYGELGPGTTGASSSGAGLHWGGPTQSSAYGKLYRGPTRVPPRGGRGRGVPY
Sequence of Cyclin-dependent kinase 13/Cyclin-K (Q14004 whole entry, the tested form may be a part): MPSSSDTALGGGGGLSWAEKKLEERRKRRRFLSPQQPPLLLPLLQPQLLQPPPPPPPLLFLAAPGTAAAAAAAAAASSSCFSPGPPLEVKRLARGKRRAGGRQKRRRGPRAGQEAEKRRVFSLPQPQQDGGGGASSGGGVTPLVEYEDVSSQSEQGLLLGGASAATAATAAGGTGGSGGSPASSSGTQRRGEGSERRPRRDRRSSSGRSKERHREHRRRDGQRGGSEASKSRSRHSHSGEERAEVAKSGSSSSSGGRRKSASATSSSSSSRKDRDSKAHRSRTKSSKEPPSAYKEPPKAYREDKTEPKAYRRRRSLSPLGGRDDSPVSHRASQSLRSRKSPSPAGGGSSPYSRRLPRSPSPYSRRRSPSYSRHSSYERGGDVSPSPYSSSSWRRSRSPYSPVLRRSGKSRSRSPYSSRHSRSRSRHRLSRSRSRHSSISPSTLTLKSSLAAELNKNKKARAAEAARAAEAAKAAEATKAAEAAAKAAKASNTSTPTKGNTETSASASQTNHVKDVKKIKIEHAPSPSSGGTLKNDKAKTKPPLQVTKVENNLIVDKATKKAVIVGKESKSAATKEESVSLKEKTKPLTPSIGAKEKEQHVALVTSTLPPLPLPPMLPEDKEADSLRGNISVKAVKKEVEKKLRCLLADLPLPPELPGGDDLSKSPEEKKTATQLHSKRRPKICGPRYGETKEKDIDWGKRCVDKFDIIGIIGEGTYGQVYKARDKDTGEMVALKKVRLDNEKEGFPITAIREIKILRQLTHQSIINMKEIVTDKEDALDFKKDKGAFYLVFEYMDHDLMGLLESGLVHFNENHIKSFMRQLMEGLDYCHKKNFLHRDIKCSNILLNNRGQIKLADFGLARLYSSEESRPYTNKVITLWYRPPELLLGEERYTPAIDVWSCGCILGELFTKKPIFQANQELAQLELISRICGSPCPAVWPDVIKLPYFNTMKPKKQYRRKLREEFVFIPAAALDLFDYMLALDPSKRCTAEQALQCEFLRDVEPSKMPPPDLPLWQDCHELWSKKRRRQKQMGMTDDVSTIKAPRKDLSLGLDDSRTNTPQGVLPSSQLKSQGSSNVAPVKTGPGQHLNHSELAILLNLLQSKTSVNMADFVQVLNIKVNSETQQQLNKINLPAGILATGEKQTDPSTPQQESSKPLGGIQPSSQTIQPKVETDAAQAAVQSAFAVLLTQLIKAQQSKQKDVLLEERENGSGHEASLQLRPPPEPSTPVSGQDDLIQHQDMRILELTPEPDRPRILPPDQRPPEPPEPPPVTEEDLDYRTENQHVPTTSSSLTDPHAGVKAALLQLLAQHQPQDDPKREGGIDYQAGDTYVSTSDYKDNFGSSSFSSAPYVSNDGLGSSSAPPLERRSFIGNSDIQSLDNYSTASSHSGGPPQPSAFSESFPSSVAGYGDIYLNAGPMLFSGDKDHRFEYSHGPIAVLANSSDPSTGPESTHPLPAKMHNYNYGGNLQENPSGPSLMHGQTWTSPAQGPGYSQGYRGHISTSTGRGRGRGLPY
Sequence of Cyclin-dependent kinase 13/Cyclin-K (O75909 whole entry, further chain, the tested form may be a part): as the sequence (O75909 whole entry) above
Sequence of CDK9/cyclin T1 (O60563 whole entry): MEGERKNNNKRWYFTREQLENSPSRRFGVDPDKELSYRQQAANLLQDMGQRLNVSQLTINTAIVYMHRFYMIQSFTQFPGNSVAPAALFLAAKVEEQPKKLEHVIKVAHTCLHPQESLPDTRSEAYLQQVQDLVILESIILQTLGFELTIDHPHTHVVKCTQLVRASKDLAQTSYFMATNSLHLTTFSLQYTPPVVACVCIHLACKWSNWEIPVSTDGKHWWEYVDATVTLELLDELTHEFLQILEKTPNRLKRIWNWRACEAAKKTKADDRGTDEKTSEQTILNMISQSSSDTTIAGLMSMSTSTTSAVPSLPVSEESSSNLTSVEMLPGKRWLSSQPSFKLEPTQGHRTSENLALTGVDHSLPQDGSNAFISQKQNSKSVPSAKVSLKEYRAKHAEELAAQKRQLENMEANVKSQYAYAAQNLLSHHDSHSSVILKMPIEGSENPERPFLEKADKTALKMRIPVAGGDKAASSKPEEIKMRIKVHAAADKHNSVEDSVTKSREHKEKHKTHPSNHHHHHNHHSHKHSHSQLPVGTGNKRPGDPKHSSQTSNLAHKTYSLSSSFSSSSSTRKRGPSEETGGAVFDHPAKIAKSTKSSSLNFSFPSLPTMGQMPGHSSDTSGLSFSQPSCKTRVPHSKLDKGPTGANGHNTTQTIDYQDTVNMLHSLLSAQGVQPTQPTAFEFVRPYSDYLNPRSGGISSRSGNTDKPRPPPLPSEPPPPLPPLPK
Sequence of CDK9/cyclin T1 (P50750 whole entry): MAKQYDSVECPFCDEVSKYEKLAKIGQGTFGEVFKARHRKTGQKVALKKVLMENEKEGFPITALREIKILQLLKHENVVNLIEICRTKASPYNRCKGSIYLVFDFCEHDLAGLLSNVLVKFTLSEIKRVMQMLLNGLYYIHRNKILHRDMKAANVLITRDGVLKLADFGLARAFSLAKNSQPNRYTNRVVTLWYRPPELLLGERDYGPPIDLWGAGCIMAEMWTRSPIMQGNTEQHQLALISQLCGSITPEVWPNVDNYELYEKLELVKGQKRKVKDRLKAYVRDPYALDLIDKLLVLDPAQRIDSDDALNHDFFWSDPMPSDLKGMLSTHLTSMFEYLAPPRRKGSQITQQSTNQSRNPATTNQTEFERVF

IC50 [3]: 0.005 µM
Compound: CC(C)c1[nH]nc2c(NCc3ccc(-n4cccn4)cc3)nc(SCC(O)CO)nc12 (stereo not given)
GI50 [1]: 0.009 µM
GI50 [2]: 0.026 µM

IC50 [3]: 0.005 µM
GI50 (OCI-LY19): 0.35 µM
IC50 [6]: 0.94 µM
IC50 [7]: 0.024 µM
IC50 (CDK9/cyclin T1): 0.012 µM
IC50 (CDK12/Cyclin K): 0.029 µM
IC50 [8]: 0.012 µM
Compound: NCCSc1nc(NCc2ccc(-c3ccccn3)cc2)c2[nH]nc(C3CCC3)c2n1
GI50 [1]: 0.011 µM
GI50 [2]: 0.019 µM
GI50 (NU-DUL-1): 0.017 µM
GI50 (DB): 0.022 µM
GI50 [4]: 0.04 µM
GI50 (U2932): 0.044 µM
GI50 (SUD4): 0.03 µM
GI50 [5]: 0.023 µM

IC50 [3]: 0.009 µM
Compound: OCCSc1nc(NCc2ccc(-c3ccccn3)cc2)c2[nH]nc(C3CCC3)c2n1
GI50 [1]: 0.058 µM
GI50 [2]: 0.152 µM

IC50 [3]: 0.075 µM
Compound: CC(C)c1[nH]nc2c(NCc3ccc(-n4cccn4)cc3)nc(SCCCN(C)C)nc12
GI50 [1]: 0.017 µM
GI50 [2]: 0.039 µM

IC50 [3]: 0.012 µM
Compound: CC(C)c1n[nH]c2c(NCc3ccc(-n4ccnc4)cc3)nc(SCCO)nc12
GI50 [1]: 1.48 µM
GI50 [2]: 6.47 µM

IC50 [3]: 0.053 µM
Compound: CC(C)c1[nH]nc2c(NCc3ccc(-n4cccn4)cc3)nc(S(C)(=O)=O)nc12
GI50 [1]: 0.03 µM
GI50 [2]: 0.25 µM

IC50 [3]: 0.002 µM
Compound: CC(C)c1[nH]nc2c(NCc3ccc(-n4cccn4)cc3)nc(SCCN)nc12
GI50 [1]: 0.001 µM
GI50 [2]: 0.004 µM

IC50 [3]: 0.012 µM
GI50 (OCI-LY19): 0.915 µM
IC50 [6]: > 1 µM
IC50 [7]: 0.127 µM
IC50 (CDK9/cyclin T1): 0.038 µM
IC50 (CDK12/Cyclin K): 0.304 µM
IC50 [8]: 0.334 µM
Compound: NCCSc1nc(NCc2ccc(-c3ccccn3)cc2)c2[nH]nc(C3CCCC3)c2n1
GI50 [1]: 0.031 µM
GI50 [2]: 0.111 µM
GI50 (NU-DUL-1): 0.2 µM
GI50 (DB): 0.107 µM
GI50 [4]: 0.047 µM
GI50 (U2932): 0.265 µM
GI50 (SUD4): 0.18 µM
GI50 [5]: 0.33 µM

IC50 [3]: 0.006 µM
Compound: CC(C)c1[nH]nc2c(NCc3ccc(-n4cccn4)cc3)nc(SCC(O)CN)nc12 (stereo not given)
GI50 [1]: 0.043 µM
GI50 [2]: 0.095 µM

IC50 [3]: 0.019 µM
Compound: CC(C)c1[nH]nc2c(NCc3ccc(-n4cccn4)cc3)nc(SCC(N)CN)nc12 (stereo not given)
GI50 [1]: 0.41 µM
GI50 [2]: 0.58 µM

IC50 [3]: 0.005 µM
Compound: CC(C)c1[nH]nc2c(NCc3ccc(-n4cccn4)cc3)nc(SCCO)nc12
GI50 [1]: 0.006 µM
GI50 [2]: 0.02 µM

IC50 [3]: 0.256 µM
Compound: CC(C)c1[nH]nc2c(NCc3ccc(-n4cccn4)cc3)nc(S)nc12
GI50 [1]: 5.9 µM
GI50 [2]: ≥ 10 µM

IC50 [3]: 0.037 µM
Compound: CC(O)CNc1nc(NCc2ccc(-n3cccn3)cc2)c2n[nH]c(C(C)C)c2n1 (stereo not given)
GI50 [1]: 0.016 µM
GI50 [2]: 0.042 µM

GI50 (OCI-LY19): 0.02 µM
IC50 [7]: 0.013 µM
IC50 [8]: 0.021 µM
Compound: CCc1cnn2c(NCc3ccc[n+]([O-])c3)cc(N3CCCC[C@H]3CCO)nc12 [DINACICLIB]
GI50 [1]: 0.021 µM
GI50 [2]: 0.022 µM
GI50 (NU-DUL-1): 0.01 µM
GI50 (DB): 0.014 µM
GI50 [4]: 0.01 µM
GI50 (U2932): 0.011 µM
GI50 (SUD4): 0.009 µM
GI50 [5]: 0.015 µM
Activity (MINO): Active

IC50 [3]: 0.025 µM
Compound: CCC(O)CSc1nc(NCc2ccc(-n3cccn3)cc2)c2n[nH]c(C(C)C)c2n1 (stereo not given)
GI50 [1]: 0.022 µM
GI50 [2]: 0.591 µM

Continued, compound first:

Compound: CC(O)CSc1nc(NCc2ccc(-n3cccn3)cc2)c2n[nH]c(C(C)C)c2n1 (stereo not given)
GI50 [1]: 0.018 µM
GI50 [2]: 0.061 µM
IC50 [3]: 0.006 µM
GI50 (NU-DUL-1): 0.062 µM
GI50 (DB): 0.078 µM
GI50 [4]: 0.055 µM
GI50 (OCI-LY19): 0.101 µM
GI50 (U2932): 0.059 µM
GI50 (SUD4): 0.105 µM
GI50 [5]: 0.061 µM
IC50 [6]: > 1 µM
IC50 [7]: 0.179 µM
IC50 (CDK9/cyclin T1): 0.062 µM
IC50 (CDK12/Cyclin K): 0.156 µM
IC50 [8]: 0.122 µM
inhibition [9]: > 50%
inhibition [10]: > 50%
inhibition [11]: > 50%

Compound: CC(C)c1n[nH]c2c(NCc3ccc(-n4ccnc4)cc3)nc(SCCN)nc12
GI50 [1]: 0.927 µM
GI50 [2]: 1.77 µM
IC50 [3]: 0.004 µM
GI50 (NU-DUL-1): 0.384 µM
GI50 (DB): 0.599 µM
GI50 [4]: 0.17 µM
GI50 (OCI-LY19): 3.56 µM
GI50 (U2932): 0.689 µM
GI50 (SUD4): 0.435 µM
GI50 [5]: 0.435 µM
IC50 [6]: > 1 µM
IC50 [7]: 0.054 µM
IC50 (CDK9/cyclin T1): 0.011 µM
IC50 (CDK12/Cyclin K): 0.073 µM
IC50 [8]: 0.067 µM

Compound: CC(C)c1n[nH]c2c(NCc3ccc(-c4c[nH]cn4)cc3)nc(SCCO)nc12
GI50 [1]: 0.49 µM
GI50 [2]: 1.43 µM

Compound: CSc1nc(NCc2ccc(-n3cccn3)cc2)c2n[nH]c(C(C)C)c2n1
GI50 [1]: 0.31 µM
GI50 [2]: 0.81 µM
IC50 [3]: 0.024 µM

Compound: CC(C)c1[nH]nc2c(NCc3ccc(-n4cccn4)cc3)nc(SCC(C)(C)N)nc12
GI50 [1]: 0.009 µM
GI50 [2]: 0.014 µM

Compound: CC(C)c1[nH]nc2c(NCc3ccc(-n4cccn4)cc3)nc(SCC(C)(C)O)nc12
GI50 [1]: 0.034 µM
GI50 [2]: 0.087 µM

Compound: CC(C)c1n[nH]c2c(NCc3ccc(-c4cnccn4)cc3)nc(SCCN)nc12
GI50 [1]: 0.022 µM
GI50 [2]: 0.069 µM
GI50 (NU-DUL-1): 0.054 µM
GI50 (DB): 0.075 µM
GI50 [4]: 0.033 µM
GI50 (OCI-LY19): 0.445 µM
GI50 (U2932): 0.093 µM
GI50 (SUD4): 0.062 µM
GI50 [5]: 0.054 µM
IC50 [6]: > 1 µM
IC50 [7]: 0.157 µM
IC50 (CDK9/cyclin T1): 0.023 µM
IC50 (CDK12/Cyclin K): 0.05 µM
IC50 [8]: 0.022 µM

Compound: CC(C)c1n[nH]c2c(NCc3ccc(-n4ccnc4)cc3)nc(S)nc12
GI50 [1]: ≥ 10 µM
GI50 [2]: ≥ 10 µM
IC50 [3]: 2.3 µM

Compound: CC(C)c1n[nH]c2c(NCc3ccc(-c4cnccn4)cc3)nc(SCCO)nc12
GI50 [1]: 0.016 µM
GI50 [2]: 0.056 µM

Compound: CN(C)C/C=C/C(=O)Nc1ccc(C(=O)N2CCC[C@@H](Nc3ncc(Cl)c(-c4c[nH]c5ccccc45)n3)C2)cc1
Activity (MINO): Active

Compound: CC(C)c1n[nH]c2c(NCc3ccc(-c4cnccn4)cc3)nc(S)nc12
GI50 [1]: 8.9 µM
GI50 [2]: ≥ 10 µM
IC50 [3]: 0.978 µM

Compound: CC(C)c1[nH]nc2c(NCc3ccc(-n4cccn4)cc3)nc(SCCN(C)C)nc12
GI50 [1]: 0.018 µM
GI50 [2]: 0.084 µM

Compound: CC(C)c1n[nH]c2c(NCc3ccc(-c4c[nH]cn4)cc3)nc(S)nc12
GI50 [1]: ≥ 10 µM
GI50 [2]: ≥ 10 µM
IC50 [3]: 0.464 µM

Compound: CC[C@H](CO)Nc1nc(NCc2ccccc2)c2ncn(C(C)C)c2n1 [SELICICLIB]
GI50 [1]: 1.49 µM
GI50 [2]: 3.07 µM
